Measured values: patent US6174909A, “4-aminotetrahydrobenzisoxazole or -isothiazole compounds” (H. Lundbeck A/S, priority 1995, dated 2001)
Counter-ions that a name gives are not always drawn.

Assays:
[1] = test system: isoniazide induced convulsions in mice; assay: Isoniazid antagonism (antagonism of isoniazide induced convulsions in mice); format: in vivo, mice (male NMRI/BOM); settings: Mus musculus, sc, 30 min before 300 mg isoniazide s.c., protected = no convulsions within 60 min, log probit analysis
Procedure: The test is a test for antagonism of isoniazide induced convulsions in mice.
The test substance is given s.c. to mice (male NMRI/BOM, body weight 20-25 g) and 30 min later 300 mg isoniazide is given s.c. Five mice are used per dose and a control group only receiving isoniazide is included. This dose of isoniazide induces intermittent tonic seizures.
The animals are placed individually in Macrolon type II cages and the time when convulsions first occur is recorded. The experiment is stopped after 90 min. The animals that have not had convulsions within 60 min. are recorded as + (protected). The results, i.e. the number of protected mice pr number of tested mice are stated in fractions as follows: 0/5, 1/5 . . . , 5/5.

[2] = test system: GABA uptake in synaptosomes; assay: GABA uptake inhibition in synaptosomes (overall, i.e. neuronal and glial); format: biochemical; settings: values marked * = Preliminary Data
Procedure: The inhibition of GABA Uptake was performed by the method described by Falch et. al, Drug Dev. Res., 1990,21, 169-188. By this method the overall, i.e. neuronal and glial, inhibition of GABA uptake is determined.

SMILES	ED50 [1]	IC50 [2]	IC50 ([2]; hydrobromide)
CN(CCC=C1c2ccccc2CCc2ccccc21)C1CCCc2onc(O)c21 (racemic) [Compound 8k, (R,S)-4-[N-[3-(10,11 1-ihydrodibenzo[a,d]cyclohept-5-ylidene)propane-1-yl]methylamino]-3-hydroxy-4,5,6,7-tetrahydro-1,2-benzisoxazole, hydrobromide]	68 µmol/kg		
CNC1CCCc2onc(OCOC(=O)c3ccccc3)c21 (racemic) [Compound 31a, (R,S)-3-Benzoyloxymethyloxy-4-methylamino-4,5,6,7-tetrahydro-1,2-benzisoxazole, hemioxalate]	210 µmol/kg		
C=CCNC1CCCc2onc(O)c21 (racemic) [Compound 8f, (R,S)-4-(2-propen-1-ylamino)-3-hydroxy-4,5,6,7-tetrahydro-1,2-benzisoxazole, oxalate]	320 µmol/kg	100 µM	
CNC1CCCc2onc(O)c21 (single isomer, unassigned; (-)) [Compound 6d, (-)-3-hydroxy-4-methylamino-4,5,6,7-tetrahydro-1,2-benzisoxazole, hydrobromide]			> 300 µM
CN(CCCC(c1ccc(F)cc1)c1ccc(F)cc1)C1CCCc2onc(O)c21 (racemic) [Compound 11a, (R,S)-^4-[N-[4,4-Bis(4-fluorophenyl)butan-1-yi]-N-methylamino]-3-hydroxy-4,5,6,7-tetrahydro-1,2-benzisoxazole, hydrobromide]	67 µmol/kg	0.73 µM	
CN(C)C1CCCc2onc(O)c21 (racemic) [Compound 18a, (R,S)-4-Dimethylamino-3-hydroxy-4,5,6,7-tetrahydro-1,2-benzisoxazole, hydrobromide]		280 µM	
CN(CCOC(c1ccccc1)c1ccccc1)C1CCCc2onc(O)c21 (racemic) [Compound 16c, (R,S)-4-[N-(diphenylmethyl-2-oxyethyl)-N-methylamino]-3-hydroxy-4,5,6,7-tetrahydro-1,2-benzisoxazole, hydrochloride]	160 µmol/kg	0.36 µM	
Oc1noc2c1C(NCCC=C1c3ccccc3CCc3ccccc31)CCC2 (racemic) [Compound 8j, (R,S)-4-[N-[3-(10,11-dihydrodibenzo[a,d]cyclohept-5-ylidene)propane-1-yl]amino]-3-hydroxy-4,5,6,7-tetrahydro-1,2-benzisoxazole, hydrobromide]		1.1 µM	
Cc1ccsc1C(=CCCNC1CCCc2onc(O)c21)c1sccc1C (racemic) [Compound 20c, (R,S)-3-Hydroxy-4-[N-(4,4-bis[3-methylthien-2-yl]-3-butenyl)amino]-4,5,6,7-tetrahydro-1,2-benzisoxazole hydrochloride]		0.17 µM	
CNC1CCCc2on(C(=O)Nc3ccccc3)c(=O)c21 (racemic) [Compound 15a, (R,S)-4-methylamino-2-phenylaminocarbonyl4,5,6,7-tetrahydro-1,2benzisoxazol-3-one, hydrochloride]	> 120 µmol/kg	70 µM	
Cc1ccccc1C(CCCN(C)C1CCCc2onc(O)c21)c1ccccc1C (racemic) [Compound 8m, (R,S)-4-[N-[4,4-Di-(2-tolyl)butan-1-yl]-rmethylamino]-3-hydroxy-4,5,6,7-tetrahydro-1,2-benzisoxazole, hydrobromide]	27 µmol/kg		
Cc1ccccc1C(CCCNC1CCCc2onc(O)c21)c1ccccc1C (racemic) [Compound 8n, (R,S)-4-[N-[4,4-Di-(2-tolyl)butan-1-yl]amino]-3-hydroxy-4,5,6,7-tetrahydro-1,2-benzisoxazole, hydrobromide]	44 µmol/kg		
CNC1CCCc2on(COC(=O)C(C)(C)C)c(=O)c21 (racemic) [Compound 14b, (R,S)-4-methylamino-2-pivaloyloxym ethyl-4,5,6,7-tetrahydro-1,2-benz isoxazol-3-one, hemioxalate]	220 µmol/kg	> 300 µM	
Oc1noc2c1C(NCCCC(c1ccccc1)c1ccccc1)CCC2 (racemic) [Compound 8g, (R,S)-4-(4,4-diphenylbutan-1-ylamino]-3-hydroxy-4,5,6,7-tetrahydro-1,2-benzisoxazole, hydrobromide]	56 µmol/kg	0.17 µM	
NC1CCCc2snc(O)c21 (racemic) [Compound 26a, (R,S)-4-Amino-3-hydroxy-4,5,6,7-tetrahydro-1,2-benzisothiazole, hydrobromide]		> 300 µM	
Oc1noc2c1C(NCC(c1ccccc1)c1ccccc1)CCC2 (racemic) [Compound 41b, (R,S)-3-Hydroxy-4-(2,2-diphenylethylamino)-4,5,6,7-tetrahydro-1,2-benzisoxazole hydrobromide]	> 190 µmol/kg	22 µM	
Oc1noc2c1C(NCCC(c1ccccc1)c1ccccc1)CCC2 (racemic) [Compound 8i, (R,S)-4-(3,3-diphenylpropan-1-ylamind]-3-hydroxy-4,5,6,7-tetrahydro-1,2-benzisoxazole, hydrobromide]	310 µmol/kg	0.14 µM	
N[C@@H]1CCCc2onc(O)c21 [Compound 6b, (-)-(R)-4-amino-3-hydroxy-4,5,6,7-tetrahydro-1,2-benzisoxazole, hydrochloride]		120 µM	
Cc1ccccc1C(=CCCNC1CCCc2onc(O)c21)c1ccccc1C (racemic) [Compound 8p, (R,S) -4-[N-1,1-Di-(2-tolyl)but-1-en-4-yl]amino]-3-hydroxy-4,5,6,7-tetrahydro-1,2-benzisoxazole, hydrobromide]	30 µmol/kg		
CNC1CCCc2onc(OCOC(=O)c3c(C)cc(C)cc3C)c21 (racemic) [Compound 31b, (R,S)-4-Methylamino-3-(2,4,6-trimethylbenzoyloxymethyloxy)-4,5,6,7-tetrahydro-1,2-benzisoxazole, hemioxalate]	55 µmol/kg	300 µM	
Oc1noc2c1C(NCCC=C(c1ccccc1)c1ccccc1)CCC2 (racemic) [Compound 20b, (R,S)-3-Hydroxy-4-[N-(4,4-diphenyl-3-butenyl)amino]-4,5,6,7-tetrahydro-1,2-benzioxazole hydrochloride hydrate]		0.14 µM	
N[C@H]1CCCc2onc(O)c21 [Compound 6a, (+)-4-amino-3-hydroxy-4,5,6,7-tetrahydro-1,2-benzisoxazole, hydrochloride]		> 300 µM	
CNC1CCCc2on(C(=O)NCc3ccccc3)c(=O)c21 (racemic) [Compound 15c]	> 120 µmol/kg	84 µM	
Oc1noc2c1C(NCCCN1c3ccccc3Sc3ccccc31)CCC2 (racemic) [Compound 8l, (R,S)-4-[N-3-(Phenothiazin-10-yl)propane-1-yl]amino]-3-hydroxy4,5,6,7-tetrahydro-1,2-benzisoxazole, hydrobromide]	71 µmol/kg		
CNC1CCCc2onc(OCOC(=O)c3c(F)cccc3F)c21 (racemic) [Compound 31c, (R,S)-4-Methylamino-3-(2,6-difluorobenzoyloxymethyloxy)-4,5,6,7-tetrahydro-1,2-benzisoxazole, hemioxalate]	210 µmol/kg		
Cc1ccccc1C(=CCCN(C)C1CCCc2onc(O)c21)c1ccccc1C (racemic) [Compound 8o, (R,S)-4-[N-[1,1-Di-(2-tolyl)but-1-en-4-yl]methylamino]-3-hydroxy-4,5,6,7-tetrahydro-1,2-benzisoxazole]	50 µmol/kg		
CN(C(=O)Oc1ccccc1)C1CCCc2onc(O)c21 (racemic) [Compound 28a, (R,S)-3-Hydroxy-N-methyl-N-(4-phenyloxycarbonyl)amino-4,5,6,7-tetrahydro-1,2-benzisoxazole]	200 µmol/kg		
